Results: patent US9181259B2 (LEO PHARMA A/S, priority 2012, dated 2015)

Target: T1, NK1 receptor (Homo sapiens, UniProt P25103)
T1 construct: Measurement of NK1 Receptor Mediated Intracellular [Ca^2+]; Mobilization in U251 MG Cells Using FLIPR; endogenous in cells; host or cells: U251 MG cells
Assay: NK1 receptor mediated intracellular [Ca2+] mobilization in U251 MG cells using FLIPR
Assay type: cell-based
Details: antagonist potency against Substance P (EC80), normalized to 100 nM Aprepitant, read-out: U251MG (FLIPR pIC50) (converted)
Procedure: Measurement of NK1 Receptor Mediated Intracellular [Ca^2+] Mobilization in U251 MG Cells Using FLIPR
U251 MG cells were seeded into black walled clear-bottom 384-well plates (Greiner Bio-One GmbH, Frickenhausen, Germany) at a density of 15,000 cells/well in 50 μl culture medium and cultured overnight in a 37° C. 5% CO2 incubator. The cells were then loaded with the calcium sensitive dye Fluo-4 (Invitrogen) at 1 μM in buffer, containing 0.04%
Pluronic F-127 (Sigma-Aldrich), and 2.5 mM probenecid (Sigma-Aldrich) for 60 min in a humidified atmosphere of 5% CO2. Thereafter, cells were washed three times in washing buffer containing 20 mM HEPES and 2.5 mM probenecid pH 7.3. Serial dilutions of test compounds in assay buffer containing 2% dimethyl sulfoxide (final concentration in the cell plate is 0.5% DMSO) and/or agonist were then automatically pipetted into each test well, and the peak fluorescence intensity was recorded (lex, 488 nm; lem, 540 nm) by the FLIPR instrument (Molecular Devices) for approximately 5 min. To measure antagonist potency, cell plates were first incubated with the test compound and intracellular fluorescence recorded for 5 minutes to check a potential agonist effect of the test compound. Cell plates were quickly removed from the FLIPR instrument and incubated for additional 10 minutes at 37° C. before being moved back to the FLIPR instrument for Substance P (EC80) addition. The response was measured as the peak relative fluorescence change after agonist addition.
The IC50 value is defined as the molar concentration of a test compound that produces a response midway between the fitted top and the fitted bottom. pIC50=−log IC50
Formula is listed as follows: Fit(% Effect calculated)=(A+((B−A)/(1+((C/X)^D)))) • A: bottom value • B: top value • C: […] • D: Hill slope coefficient
Ref: Sullivan E, Tucker E M, and Dale I L. Measurement of [Ca^2+] using the Fluorometric Imaging Plate Reader (FLIPR). Methods Mol Biol 114:125-133, 1999.
Compounds of the present invention were tested according to example 120.

T1 sequence (P25103 whole entry): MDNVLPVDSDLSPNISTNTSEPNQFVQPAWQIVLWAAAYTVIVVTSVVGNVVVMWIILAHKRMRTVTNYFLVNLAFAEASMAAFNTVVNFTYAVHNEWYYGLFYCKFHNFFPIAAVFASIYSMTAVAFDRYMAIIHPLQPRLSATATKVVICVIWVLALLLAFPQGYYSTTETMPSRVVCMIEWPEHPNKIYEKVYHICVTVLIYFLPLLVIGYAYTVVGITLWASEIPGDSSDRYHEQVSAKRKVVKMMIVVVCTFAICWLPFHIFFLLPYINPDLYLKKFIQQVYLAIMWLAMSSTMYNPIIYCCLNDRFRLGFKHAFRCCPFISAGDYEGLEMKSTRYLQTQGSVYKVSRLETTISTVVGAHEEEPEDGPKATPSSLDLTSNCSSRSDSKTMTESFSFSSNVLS

IC50 [nM] | SMILES
1.78 | COC(=O)C1(C)CC2C(c3ccccc3C)N(C(=O)N(C)Cc3cc(C(F)(F)F)cc(C(F)(F)F)c3)CCN2C1=O (single isomer, unassigned) [Compound 12, Methyl 2-({[3,5-bis(trifluoromethyl)phenyl]methyl}(methyl)carbamoyl)-7-methyl-1-(2-methylphenyl)-6-oxo-octahydropyrrolo{1,2-a}piperazine-7-carboxylate]
4.17 | COC(=O)C1(C)CC2C(c3ccccc3C)N(C(=O)N(C)Cc3cc(C(F)(F)F)cc(C(F)(F)F)c3)CCN2C1=O (single isomer, unassigned) [Compound 13, Methyl 2-({[3,5-bis(trifluoromethyl)phenyl]methyl}(methyl)carbamoyl)-7-methyl-1-(2-methylphenyl)-6-oxo-octahydropyrrolo{1,2-a}piperazine-7-carboxylate]
28.2 | Cc1ccccc1C1C2CCC(=O)N2CCN1C(=O)N(C)Cc1cc(C(F)(F)F)cc(C(F)(F)F)c1 (single isomer, unassigned) [Compound 17, N-{[3,5-bis(trifluoromethyl)phenyl]methyl}-N-methyl-1-(2-methylphenyl)-6-oxo-octahydropyrrolo[1,2-a]piperazine-2-carboxamide]
> 100 | Cc1ccccc1C1C2CCCN2CCN1C(=O)N(C)Cc1cc(C(F)(F)F)cc(C(F)(F)F)c1 (single isomer, unassigned) [Compound 61, N-{[3,5-bis(trifluoromethyl)phenyl]methyl}-N-methyl-1-(2-methylphenyl)-octahydropyrrolo[1,2-a]piperazine-2-carboxamide]
0.224 | Cc1ccccc1C1C2CC(CO)CN2CCN1C(=O)N(C)Cc1cc(C(F)(F)F)cc(C(F)(F)F)c1 (single isomer, unassigned) [Compound 48, N-{[3,5-bis(trifluoromethyl)phenyl]methyl}-7-(hydroxymethyl)-N-methyl-1-(2-methylphenyl)-octahydropyrrolo[1,2-a]piperazine-2-carboxamide]
0.1 | COC(=O)C1(C)CC2C(c3ccccc3C)N(C(=O)N(C)Cc3cc(C(F)(F)F)cc(C(F)(F)F)c3)CCN2C1=O (single isomer, unassigned) [Compound 15, Methyl 2-({[3,5-bis(trifluoromethyl)phenyl]methyl}(methyl)carbamoyl)-7-methyl-1-(2-methylphenyl)-6-oxo-octahydropyrrolo{1,2-a}piperazine-7-carboxylate]
0.813 | COC(=O)C1(C)CC2C(c3ccccc3C)N(C(=O)N(C)Cc3cc(C(F)(F)F)cc(C(F)(F)F)c3)CCN2C1=O (stereo not drawn) [Compound 11, Methyl 2-({[3,5-bis(trifluoromethyl)phenyl]methyl}(methyl)carbamoyl)-7-methyl-1-(2-methylphenyl)-6-oxo-octahydropyrrolo{1,2-a}piperazine-7-carboxylate]
0.0407 | Cc1ccccc1C1C2CC(CO)C(=O)N2CCN1C(=O)N(C)Cc1cc(C(F)(F)F)cc(C(F)(F)F)c1 (single isomer, unassigned) [Compound 21, N-{[3,5-bis(trifluoromethyl)phenyl]methyl}-7-(hydroxymethyl)-N-methyl-1-(2-methylphenyl)-6-oxo-octahydropyrrolo[1,2-a]piperazine-2-carboxamide]
22.9 | Cc1ccccc1C1C2CC(C)(C(=O)N(C)C)C(=O)N2CCN1C(=O)N(C)Cc1cc(C(F)(F)F)cc(C(F)(F)F)c1 (single isomer, unassigned) [Compound 25, 2-N-{[3,5-bis(trifluoromethyl)phenyl]methyl}-2-N,7-N,7-N,7-tetramethyl-1-(2-methylphenyl)-6-oxo-octahydropyrrolo[1,2-a]piperazine-2,7-dicarboxamide]
0.437 | C=C1CC2C(c3ccccc3C)N(C(=O)N(C)Cc3cc(C(F)(F)F)cc(C(F)(F)F)c3)CCN2C1=O (single isomer, unassigned) [Compound 32, N-{[3,5-bis(trifluoromethyl)phenyl]methyl}-N-methyl-7-methylidene-1-(2-methylphenyl)-6-oxo-octahydropyrrolo[1,2-a]piperazine-2-carboxamide]
1.35 | Cc1ccccc1C1C2CCCN2CCN1C(=O)N(C)Cc1cc(C(F)(F)F)cc(C(F)(F)F)c1 (racemic) [Compound 24, N-{[3,5-bis(trifluoromethyl)phenyl]methyl}-N-methyl-1-(2-methylphenyl)-octahydropyrrolo[1,2-a]piperazine-2-carboxamide]
0.0692 | COC(=O)C1(C)CC2C(c3ccccc3C)N(C(=O)N(C)Cc3cc(C(F)(F)F)cc(C(F)(F)F)c3)CCN2C1=O (single isomer, unassigned) [Compound 14, Methyl 2-({[3,5-bis(trifluoromethyl)phenyl]methyl}(methyl)carbamoyl)-7-methyl-1-(2-methylphenyl)-6-oxo-octahydropyrrolo{1,2-a}piperazine-7-carboxylate]
0.513 | Cc1ccccc1C1C2CC(CN3CCCC3)C(=O)N2CCN1C(=O)N(C)Cc1cc(C(F)(F)F)cc(C(F)(F)F)c1 (single isomer, unassigned) [Compound 31, N-{[3,5-bis(trifluoromethyl)phenyl]methyl}-N-methyl-1-(2-methylphenyl)-6-oxo-7-(pyrrolidin-1-ylmethyl)-octahydropyrrolo[1,2-a]piperazine-2-carboxamide]

More lines, now with the values behind:

SMILES | IC50 [nM]
Cc1ccccc1C1C2CC(CCO)(CCO)CN2CCN1C(=O)N(C)[C@H](C)c1cc(C(F)(F)F)cc(C(F)(F)F)c1 (single isomer, unassigned) [Compound 59] | 60.3
Cc1ccccc1[C@H]1[C@@H]2CC(CCO)(CCO)C(=O)N2CCN1C(=O)N(C)C(CCO)c1cc(C(F)(F)F)cc(C(F)(F)F)c1 (single isomer, unassigned) [Compound 81] | 0.12
Cc1ccccc1C1C2CC(CO)CN2CCN1C(=O)N(C)[C@H](C)c1cc(C(F)(F)F)cc(C(F)(F)F)c1 (single isomer, unassigned) [Compound 69] | 0.214
Cc1ccccc1C1C2CC(CCO)CN2CCN1C(=O)N(C)C(CCO)c1cc(C(F)(F)F)cc(C(F)(F)F)c1 (stereo not drawn) [Compound 36, N-{1-[3,5-bis(trifluoromethyl)phenyl]-3-hydroxypropyl}-7-(2-hydroxyethyl)-N-methyl-1-(2-methylphenyl)-octahydropyrrolo[1,2-a]piperazine-2-carboxamide] | 0.724
Cc1ccccc1C1C2CC(CN3CCOCC3)C(=O)N2CCN1C(=O)N(C)Cc1cc(C(F)(F)F)cc(C(F)(F)F)c1 (single isomer, unassigned) [Compound 40] | 7.76
Cc1ccccc1C1C2CC(CO)CN2CCN1C(=O)N(C)[C@H](C)c1cc(C(F)(F)F)cc(C(F)(F)F)c1 (single isomer, unassigned) [Compound 70] | 66.1
Cc1ccccc1[C@@H]1[C@H]2CCC(=O)N2CCN1C(=O)N(C)[C@H](C)c1cc(C(F)(F)F)cc(C(F)(F)F)c1 (single isomer, unassigned) [Compound 10] | 12.9
Cc1ccccc1C1C2CC(CCO)(CCO)C(=O)N2CCN1C(=O)N(C)[C@H](C)c1cc(C(F)(F)F)cc(C(F)(F)F)c1 (single isomer, unassigned) [Compound 53] | 2.45
Cc1ccccc1C1C2CC(CN3CCOCC3)C(=O)N2CCN1C(=O)N(C)[C@H](C)c1cc(C(F)(F)F)cc(C(F)(F)F)c1 (single isomer, unassigned) [Compound 74] | 0.0891
Cc1ccccc1C1C2CC(CCO)C(=O)N2CCN1C(=O)N(C)C(CCO)c1cc(C(F)(F)F)cc(C(F)(F)F)c1 (single isomer, unassigned) [Compound 34, N-{1-[3,5-bis(trifluoromethyl)phenyl]-3-hydroxypropyl}-7-(2-hydroxyethyl)-N-methyl-1-(2-methylphenyl)-6-oxo-octahydropyrrolo[1,2-a]piperazine-2-carboxamide] | 15.5
Cc1ccccc1C1C2CC(CO)C(=O)N2CCN1C(=O)N(C)[C@H](C)c1cc(C(F)(F)F)cc(C(F)(F)F)c1 (single isomer, unassigned) [Compound 57] | 1.51
Cc1ccccc1C1C2CC(CO)C(=O)N2CCN1C(=O)N(C)[C@H](C)c1cc(C(F)(F)F)cc(C(F)(F)F)c1 (single isomer, unassigned) [Compound 58] | 11.5
Cc1ccccc1C1C2CCCN2CCN1C(=O)N(C)[C@H](C)c1cc(C(F)(F)F)cc(C(F)(F)F)c1 (single isomer, unassigned) [Compound 64] | 42.7
Cc1ccccc1[C@H]1[C@@H]2CC(CCO)(CCO)C(=O)N2CCN1C(=O)N(C)Cc1cccc(C(F)(F)F)c1 [Compound 80, (1S,8aS)-7,7-bis(2-hydroxyethyl)-N-methyl-6-oxo-1-o-tolyl-N-(3-(trifluoromethyl)benzyl)hexahydropyrrolo[1,2-a]pyrazine-2(1H)-carboxamide] | 0.468
